In experiment [1] the test system is A549 cells. Description: Cell-based assay: anti-proliferative activity, Cell Counting Kit-8, 72 hours (A549). The conditions noted are these: MELK-expressing, Cell Counting Kit-8 at 72 hours. The method, boiled down: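 A549 cells were seeded in 96-well plates and exposed to candidate inhibitors for 72 hours. Cell growth was then measured with Cell Counting Kit-8, and IC50 values were calculated from the resulting growth data.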

In experiment [2] the test system is BT-549 cells. Description: Cell-based assay: anti-proliferative activity, Cell Counting Kit-8, 72 hours (BT-549). The conditions noted are these: BT549 cells, MELK-expressing, Cell Counting Kit-8 at 72 hours. Here is the method:
To evaluate the expression status of MELK in several cell lines, western blot analysis was performed using crude cell lysate collected from those cells. Anti-MELK antibody (clone 31, BD Biosciences) was used to visualize the expression.
Active candidate inhibitors against MELK were evaluated for their target-specific cytotoxicity using T47D, A549, BT-549, and HT-1197 cells was used for negative control. 100 micro-L of cell suspension was seeded onto 96-well microtiter plate (ViewPlate-96FTC, PerkinElmer). The initial cell concentration of T47D, A549, BT-549, and HT-1197 were 3,000 cells/well, 2,000 cells/well and 2,500 cells/well, respectively. Cellular growth was determined using Cell Counting Kit-8 (DOJINDO) at 72 hours after the exposure of the candidate inhibitors. […] Accurate IC50 values were calculated as described previously.

In experiment [3] the target is MELK (Homo sapiens, UniProt Q14680). Description: Kinase assay: MELK activity, phosphorylation of FITC-labeled histone H3 peptide measured by IMAP fluorescence polarization. In kind it is biochemical. Conditions: 50 micro-M ATP, FITC-labeled histone H3 peptide substrate, IMAP fluorescence polarization, read-out: IC50 (μM) (kinase assay). Put shortly: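 Substrate is FITC-labeled histone H3 peptide. Compounds come from a 12.5 mM DMSO stock, diluted so assay DMSO is 1%. The stop step adds threefold-volume progressive binding solution, followed by 0.5 h at room temperature and an FP read.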
Chain of MELK (Q14680 whole entry, looked up): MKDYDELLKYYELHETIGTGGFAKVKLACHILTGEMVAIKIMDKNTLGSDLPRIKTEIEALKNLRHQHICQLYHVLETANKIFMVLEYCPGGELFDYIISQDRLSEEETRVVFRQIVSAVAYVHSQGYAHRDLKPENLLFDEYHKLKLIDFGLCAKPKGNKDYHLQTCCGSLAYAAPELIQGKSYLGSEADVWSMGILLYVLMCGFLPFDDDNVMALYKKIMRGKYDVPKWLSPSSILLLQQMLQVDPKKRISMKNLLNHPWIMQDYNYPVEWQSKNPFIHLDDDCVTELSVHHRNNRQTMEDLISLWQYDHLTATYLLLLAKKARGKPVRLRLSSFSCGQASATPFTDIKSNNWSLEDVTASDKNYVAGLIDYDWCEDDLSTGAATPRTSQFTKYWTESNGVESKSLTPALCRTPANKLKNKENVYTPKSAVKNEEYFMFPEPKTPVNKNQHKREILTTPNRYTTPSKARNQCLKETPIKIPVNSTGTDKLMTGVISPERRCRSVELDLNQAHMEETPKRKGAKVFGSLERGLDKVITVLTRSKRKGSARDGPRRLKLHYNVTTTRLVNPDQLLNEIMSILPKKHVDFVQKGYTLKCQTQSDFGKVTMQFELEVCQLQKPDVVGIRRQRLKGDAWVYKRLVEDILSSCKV
(In general: Polarisation of emitted light reports the rotation of a fluorescent probe.)

Experiment [4] relates to T47D cells. Description: Cell-based assay: anti-proliferative activity, Cell Counting Kit-8, 72 hours (T47D). Conditions: MELK-expressing, Cell Counting Kit-8 at 72 hours. The method, boiled down: (§1)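 IC50 values come from CCK-8 growth measurements taken 72 hours post-treatment of plated cells with test compounds. Expression of MELK across the panel was assessed through immunoblot of unfractionated lysates.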
On the technique in general: Tetrazolium dyes change colour on reduction, which living cells bring about.

In experiment [5] the test system is HT-1197 cells. Description: Cell-based assay: anti-proliferative activity, Cell Counting Kit-8, 72 hours (HT-1197, negative control without MELK expression). Conditions: HT1197 cells, no MELK expression (negative control), Cell Counting Kit-8 at 72 hours. Put shortly:
as §1

Counter-ions that a name gives are not always drawn. Like-named read-outs stand apart in the source and are kept apart here.

By IC50 is commonly meant the concentration that gives 50% inhibition. In the case of `N[C@H]1CC[C@H](Nc2c(C(=O)C3CC3)cnc3ccc(-c4ccc5[nH]cnc5c4)cc23)CC1` [Example 116, {4-[trans-4-Aminocyclohexylamino]-6-(1H-benzo[d]imidazol-5-yl)quinolin-3-yl}(cyclopropyl)methanone], the IC50 is 13 µM in experiment [1] (Homo sapiens, A549, 72 h); 5.7 µM in experiment [2] (Homo sapiens, BT-549, 72 h); 0.018 µM in experiment [3]; 1.8 µM in experiment [4] (Homo sapiens, T47D, 72 h); 15 µM in experiment [5] (Homo sapiens, HT1197, 72 h).

As for `COc1cc(-c2ccc3ncc(C(=O)C4CC4)c(N4CCC(CN5CCCC5)CC4)c3c2)cc(Cl)c1O` [Example 280, {6-(3-Chloro-4-hydroxy-5-methoxyphenyl)-4-[4-(pyrrolidin-1-ylmethyl)piperidin-1-yl]quinolin-3-yl}(cyclopropyl)methanone], the IC50 in experiment [1] (Homo sapiens, A549, 72 h) came out at 0.2 µM; in experiment [2] (Homo sapiens, BT-549, 72 h) it was 0.71 µM; in experiment [3], 0.0017 µM; in experiment [4] (Homo sapiens, T47D, 72 h), 0.25 µM; in experiment [5] (Homo sapiens, HT1197, 72 h) it was 2.9 µM.

Regarding `COc1cc(-c2ccc3ncc(C(=O)C4CC4)c(N[C@H]4CC[C@H](N(C)C)CC4)c3c2)ccc1O` [Example 266, Cyclopropyl(4-((trans)-4-(dimethylamino)cyclohexylamino)-6-(4-hydroxy-3-methoxyphenyl)quinolin-3-yl)methanone], the IC50 in experiment [1] (Homo sapiens, A549, 72 h) stood at 0.37 µM; in experiment [2] (Homo sapiens, BT-549, 72 h), 0.94 µM; in experiment [3], 0.0016 µM; in experiment [4] (Homo sapiens, T47D, 72 h), 0.29 µM; in experiment [5] (Homo sapiens, HT1197, 72 h) it was 3 µM.

For `CC(C)C(=O)c1cnc2ccc(-c3cc(F)c(O)c(F)c3)cc2c1N[C@H]1CC[C@H](N)CC1` [Example 214, 1-{4-[trans-4-Aminocyclohexylamino]-6-(3,5-difluoro-4-hydroxyphenyl)quinolin-3-yl}-2-methylpropan-1-one], the IC50 was found to be 0.65 µM in experiment [1] (Homo sapiens, A549, 72 h); 0.084 µM in experiment [2] (Homo sapiens, BT-549, 72 h); 0.043 µM in experiment [3]; 0.048 µM in experiment [4] (Homo sapiens, T47D, 72 h); 1.4 µM in experiment [5] (Homo sapiens, HT1197, 72 h).

In the case of `CC(C)C(=O)c1cnc2ccc(-c3cc(Cl)c(O)c(Cl)c3)cc2c1N[C@H]1CC[C@H](N)CC1` [Example 225(b), 1-{4-[trans-4-Aminocyclohexylamino]-6-(3,5-dichloro-4-hydroxyphenyl)quinolin-3-yl}-2-methylpropan-1-one dihydrochloride], the half-maximal inhibitory concentration (IC50) in experiment [1] (dihydrochloride) was 0.22 µM; in experiment [2] (dihydrochloride) it was 0.17 µM; in experiment [3] (dihydrochloride) it was 0.0028 µM; in experiment [4] (dihydrochloride), 0.048 µM; in experiment [5] (dihydrochloride), 1.6 µM.

For `CN(C)[C@H]1CC[C@H](CNc2c(C(=O)C3CC3)cnc3ccc(-c4cc(F)c(O)c(Cl)c4)cc23)CC1` [Example 327], the IC50 was found to be 0.42 µM in experiment [1] (Homo sapiens, A549, 72 h); 1 µM in experiment [2] (Homo sapiens, BT-549, 72 h); 0.0055 µM in experiment [3]; 0.48 µM in experiment [4] (Homo sapiens, T47D, 72 h); 3 µM in experiment [5] (Homo sapiens, HT1197, 72 h).

As to `COc1cc(-c2ccc3ncc(C(=O)C4CC4)c(N[C@H]4CC[C@H](CN(C)C)CC4)c3c2)cc(Cl)c1O` [Example 316], the IC50 in experiment [1] (Homo sapiens, A549, 72 h) worked out at 0.32 µM; in experiment [2] (Homo sapiens, BT-549, 72 h), 1.3 µM; in experiment [3], 0.011 µM; in experiment [4] (Homo sapiens, T47D, 72 h) it was 0.5 µM; in experiment [5] (Homo sapiens, HT1197, 72 h), 6.3 µM.

Consider `COc1cc(-c2ccc3ncc(C(=O)C4CC4)c(N[C@H]4CC[C@@H](N)CC4)c3c2)ccc1O` [Example 165, {4-(cis-4-Aminocyclohexylamino)-6-(4-hydroxy-3-methoxyphenyl)quinolin-3-yl}(cyclopropyl)methanone], for which the IC50 turned out to be 0.45 µM in experiment [1] (Homo sapiens, A549, 72 h); 0.93 µM in experiment [2] (Homo sapiens, BT-549, 72 h); 0.0019 µM in experiment [3]; 0.57 µM in experiment [4] (Homo sapiens, T47D, 72 h); 2.1 µM in experiment [5] (Homo sapiens, HT1197, 72 h).

Take `COc1cc(-c2ccc3ncc(C(=O)C4CC4)c(Nc4ccc(CN(C)C)cc4)c3c2)cc(Cl)c1O` [Example 339]: the half-inhibitory concentration (IC50) is 0.19 µM in experiment [1] (Homo sapiens, A549, 72 h); 0.49 µM in experiment [2] (Homo sapiens, BT-549, 72 h); 0.004 µM in experiment [3]; 0.15 µM in experiment [4] (Homo sapiens, T47D, 72 h); 1.9 µM in experiment [5] (Homo sapiens, HT1197, 72 h).

`CC(C)C(=O)c1cnc2ccc(-c3cc(F)c(O)c(Cl)c3)cc2c1N[C@H]1CC[C@H](N)CC1` [Example 205, 1-{4-[trans-4-Aminocyclohexylamino]-6-(3-chloro-5-fluoro-4-hydroxyphenyl)quinolin-3-yl}-2-methylpropan-1-one]: the IC50 in experiment [1] (Homo sapiens, A549, 72 h) amounted to 0.6 µM; in experiment [2] (Homo sapiens, BT-549, 72 h) it was 0.15 µM; in experiment [3], 0.01 µM; in experiment [4] (Homo sapiens, T47D, 72 h), 0.066 µM; in experiment [5] (Homo sapiens, HT1197, 72 h) it was 2.4 µM.

Regarding `CN(C)Cc1ccc(Nc2c(C(=O)C3CC3)cnc3ccc(-c4cc(Cl)c(O)c(Cl)c4)cc23)cc1` [Example 345, Cyclopropyl[6-(3,5-dichloro-4-hydroxyphenyl)-4-{4-[(dimethylamino)methyl]phenylamino}quinolin-3-yl]methanone], the concentration for half-maximal inhibition (IC50) in experiment [1] (Homo sapiens, A549, 72 h) was 0.051 µM; in experiment [2] (Homo sapiens, BT-549, 72 h), 0.1 µM; in experiment [3], 0.0032 µM; in experiment [4] (Homo sapiens, T47D, 72 h), 0.054 µM; in experiment [5] (Homo sapiens, HT1197, 72 h), 0.67 µM.

Consider `N#Cc1ccc(-c2ccc3ncc(C(=O)C4CC4)c(N[C@H]4CC[C@H](N)CC4)c3c2)s1` [Example 119, 5-{4-[trans-4-Aminocyclohexylamino]-3-(cyclopropanecarbonyl)quinolin-6-yl}thiophene-2-carbonitrile], for which the IC50 in experiment [1] (Homo sapiens, A549, 72 h) was determined as 5.4 µM; in experiment [2] (Homo sapiens, BT-549, 72 h) it was 14 µM; in experiment [3], 0.046 µM; in experiment [4] (Homo sapiens, T47D, 72 h), 8.8 µM; in experiment [5] (Homo sapiens, HT1197, 72 h) it was 8 µM.

For the molecule `CC(C)C(=O)c1cnc2ccc(-c3cc(Cl)c(O)c(Cl)c3)cc2c1N[C@H]1CC[C@H](N)CC1` [Example 225(a), 1-{4-[trans-4-Aminocyclohexylamino]-6-(3,5-dichloro-4-hydroxyphenyl)quinolin-3-yl}-2-methylpropan-1-one], the IC50 in experiment [1] (Homo sapiens, A549, 72 h) amounted to 0.43 µM; in experiment [2] (Homo sapiens, BT-549, 72 h) it was 0.18 µM; in experiment [3] it was 0.0025 µM; in experiment [4] (Homo sapiens, T47D, 72 h) it was 0.073 µM; in experiment [5] (Homo sapiens, HT1197, 72 h) it was 2 µM.

As to `CCN(CC)C1CCC(Nc2c(C(=O)C3CC3)cnc3ccc(-c4ccc(O)c(OC)c4)cc23)CC1` (stereo not drawn) [Example 193, Cyclopropyl{4-[4-(diethylamino)cyclohexylamino]-6-(4-hydroxy-3-methoxyphenyl)quinolin-3-yl}methanone], the IC50 turned out to be 0.59 µM in experiment [1] (Homo sapiens, A549, 72 h); 2 µM in experiment [2] (Homo sapiens, BT-549, 72 h); 0.007 µM in experiment [3]; 0.52 µM in experiment [4] (Homo sapiens, T47D, 72 h); 4.2 µM in experiment [5] (Homo sapiens, HT1197, 72 h).

On to `CCN(CC)C1CCC(Nc2c(S(C)(=O)=O)cnc3ccc(-c4cc(Cl)c(O)c(OC)c4)cc23)CC1` (stereo not drawn) [Example 240, 2-Chloro-4-{4-[4-(diethylamino)cyclohexylamino]-3-(methylsulfonyl)quinolin-6-yl}-6-methoxyphenol dihydrochloride], for which the IC50 came to 0.78 µM in experiment [1] (Homo sapiens, A549, 72 h); 1.5 µM in experiment [2] (Homo sapiens, BT-549, 72 h); 0.0053 µM in experiment [3]; 0.97 µM in experiment [4] (Homo sapiens, T47D, 72 h); 3.8 µM in experiment [5] (Homo sapiens, HT1197, 72 h).

On to `COc1cc(-c2ccc3ncc(C(=O)CC(C)C)c(N[C@H]4CC[C@H](N(C)C)CC4)c3c2)cc(Cl)c1O` [Example 348, 1-{6-(3-Chloro-4-hydroxy-5-methoxyphenyl)-4-[trans-4-(dimethylamino)cyclohexylamino]quinolin-3-yl}-3-methylbutan-1-one], for which the half-maximal inhibitory concentration (IC50) was determined as 0.47 µM in experiment [1] (Homo sapiens, A549, 72 h); 0.93 µM in experiment [2] (Homo sapiens, BT-549, 72 h); 0.0043 µM in experiment [3]; 0.41 µM in experiment [4] (Homo sapiens, T47D, 72 h); 3 µM in experiment [5] (Homo sapiens, HT1197, 72 h).

In the case of `O=C(c1cnc2ccc(-c3ccc(O)c(OC(F)(F)F)c3)cc2c1N1CCC(CN2CCCC2)CC1)C1CC1` [Example 313, Cyclopropyl{6-[4-hydroxy-3-(trifluoromethoxy)phenyl]-4-[4-(pyrrolidin-1-ylmethyl]piperidin-1-yl}quinolin-3-yl)methanone], the 50% inhibitory concentration (IC50) worked out at 0.8 µM in experiment [1] (Homo sapiens, A549, 72 h); 1.3 µM in experiment [2] (Homo sapiens, BT-549, 72 h); 0.012 µM in experiment [3]; 0.67 µM in experiment [4] (Homo sapiens, T47D, 72 h); 3.2 µM in experiment [5] (Homo sapiens, HT1197, 72 h).

Turning to `CN(C)[C@H]1CC[C@H](Nc2c(C(=O)C3CC3)cnc3ccc(-c4cc(Cl)c(O)c(Cl)c4)cc23)CC1` [Example 263, Cyclopropyl{6-(3,5-dichloro-4-hydroxyphenyl)-4-[trans-4-(dimethylamino)cyclohexylamino]quinolin-3-yl}methanone], the concentration for half-maximal inhibition (IC50) turned out to be 0.2 µM in experiment [1] (Homo sapiens, A549, 72 h); 0.41 µM in experiment [2] (Homo sapiens, BT-549, 72 h); 0.0017 µM in experiment [3]; 0.13 µM in experiment [4] (Homo sapiens, T47D, 72 h); 1.2 µM in experiment [5] (Homo sapiens, HT1197, 72 h).
